Tests used:
[1] = Absorption and fluorescence in toluene; assay type: physicochemical; settings: for molar extinction coefficient ε: at maximum absorption wavelength
Solubility in water = assay type: physicochemical; settings: room temperature
Procedure: In accordance with the present invention, the solubility and particularly the solubility of the compound having the general formula (1) or the general formula (2) in water at 23°C is measured as follows: 1 mg sample is weighed into an Erlenmeyer flask and is then mixed homogeneously with 4 ml of water with a spatula at 23°C. The remaining substance on the spatula is stripped off with a magnetic stirrer bar, which is then added to the Erlenmeyer flask. While stirring with a magnetic stirrer, water is added dropwise with a burette until the solution in the Erlenmeyer flask becomes clear at 23°C. After that, the solubility of compound in water is calculated by calculating the ratio of weighed compound divided by the volume of added water and then by recalculating this ratio to 1 I of water.

Compound | molar extinction coefficient ε ([1]; in toluene (10^-5 mol/L)) [M⁻¹ cm⁻¹] | absorption spectrum and emission spectrum [1] | other results
6,14-didodecyldibenzo[hi,st]ovalene [Example 2] | 203000 |  | fluorescence quantum yield ([1]; in toluene (10^-5 mol/L)): 0.85; maximum absorption wavelength ([1]; in toluene (10^-5 mol/L)): 611 nm
Cc1cccc(C)c1-c1c2cccc3c4ccc5ccc6c(-c7c(C)cccc7C)c7cccc8c9ccc%10ccc1c1c%10c9c9c(c78)c6c5c4c9c1c23 [Example 3, 6, 14-bis(dimethylphenyl)dibenzo[hi,st]ovalene] | 283000 | narrow absorption spectrum as well as a narrow emission spectrum | 
COCCOCCOCCOCCOc1cc(-c2ccc3cc4cc5c(-c6c(C)cc(C)cc6C)cc6cc7c(-c8cc(OCCOCCOCCOCCOC)c(OCCOCCOCCOCCOC)c(OCCOCCOCCOCCOC)c8)ccc8cc9cc%10c(-c%11c(C)cc(C)cc%11C)cc%11cc2c3c2c%11c%10c3c9c(c87)c6c5c3c42)cc(OCCOCCOCCOCCOC)c1OCCOCCOCCOCCOC [Example 5, 3,11-bis(3,4,5-tris(2,5,8,11-tetraoxatridecan-13-yloxy)phenyl)-6,14-dimesityldibenzo[hi, st]ovalene] |  |  | solubility of this compound in water (Solubility in water): 0.1 g/L
CC(C)[Si](C#Cc1c2cccc3c4ccc5ccc6c(C#C[Si](C(C)C)(C(C)C)C(C)C)c7cccc8c9ccc%10ccc1c1c%10c9c9c(c78)c6c5c4c9c1c23)(C(C)C)C(C)C [Example 6, 6, 14-di(triisopropylsilylethynyl) dibenzo[hi,st]ovalene] | 61511 | narrow absorption spectrum as well as a narrow emission spectrum | 
CCCCCCCCCCCCOc1cc(-c2c3cccc4c5ccc6ccc7c(-c8cc(OCCCCCCCCCCCC)c(OCCCCCCCCCCCC)c(OCCCCCCCCCCCC)c8)c8cccc9c%10ccc%11ccc2c2c%11c%10c%10c(c89)c7c6c5c%10c2c34)cc(OCCCCCCCCCCCC)c1OCCCCCCCCCCCC [Example 7, 6,14-bis[3,4,5-tris(dodecoxyl)phenyl]dibenzo[hi,st]ovalene] | 385000 |  | 
c1ccc(-c2c3cccc4c5ccc6ccc7c(-c8ccccc8)c8cccc9c%10ccc%11ccc2c2c%11c%10c%10c(c89)c7c6c5c%10c2c34)cc1 [Example 8, 6,14-diphenyldibenzo[hi,st]ovalene] |  | narrow absorption spectrum as well as a narrow emission spectrum | 
N-hexyl fumaric acid imide group substituted 6,14-dimesityldibenzo[hi,st]ovalene [Example 9] |  | narrow absorption spectrum as well as a narrow emission spectrum | 

Reference: patent publication EP4621028A1, “FLUORESCENCE RECOVERY IN NANOGRAPHENE” (Max-Planck-Gesellschaft zur Förderung der Wissenschaften …, priority 2024, dated 2025)
